pIC50: −log10 of the molar value.
Biological target: human thrombin (Homo sapiens, UniProt P00734)
Assay: Measurement of thrombin inhibition (in vitro enzyme assay)
Format: biochemical
Settings: human thrombin 0.06 nmol/l, 15 min incubation at 22° C., pH 7.4; substrate 5 μmol/l Boc-Asp(OBzl)-Pro-Arg-AMC, 30 min, fluorescence
Description: For determination of the thrombin inhibition of the aforementioned substances, a biochemical test system is used, in which the conversion of a thrombin substrate is used for determining the enzymatic activity of human thrombin. In this, thrombin cleaves aminomethylcoumarin from the peptic substrate, and this is measured by fluorescence. The determinations are carried out in microtitre plates.
The test substances are dissolved at different concentrations in dimethylsulphoxide and incubated for 15 min with human thrombin (0.06 nmol/l dissolved in 50 mmol/l Tris-buffer [C,C,C-Tris(hydroxymethyl)-aminomethane], 100 mmol/l NaCl, 0.1% BSA [bovine serum albumin], pH 7.4) at 22° C. Then the substrate (5 μmol/l Boc-Asp(OBzl)-Pro-Arg-AMC from the company Bachem) is added. After incubation for 30 min the sample is excited at a wavelength of 360 nm and the emission at 460 nm is measured. The measured emissions of the test preparations with test substance are compared with the control preparations without test substance (dimethylsulphoxide only, instead of test substance in dimethylsulphoxide) and IC50 values are calculated from the concentration-effect relations.

| pIC50 | SMILES |
| --- | --- |
| 7.59 | CN(C)C(Cn1cc2ccc(C(=O)NCc3cccc(Cl)c3)cc2n1)c1ccccc1Cl (stereo not drawn) [Example 49, N-(3-Chlorobenzyl)-2-[2-(2-chlorophenyl)-2-(dimethylamino)ethyl]-2H-indazole-6-carboxamide] |
| 6.96 | Cc1nn(CCn2cc3ccc(C(=O)NCc4cccc(Cl)c4)cc3n2)c(C)c1Cl [Example 26, N-(3-Chlorobenzyl)-2-[2-(4-chloro-3,5-dimethyl-1H-pyrazol-1-yl)ethyl]-2H-indazole-6-carboxamide] |
| 6.67 | O=C(NCc1cccc(Cl)c1)c1ccc2cn(CCN3CCOC3=O)nc2c1 [Example 4, N-(3-Chlorobenzyl)-2-[2-(2-oxo-1,3-oxazolidin-3-yl)ethyl]-2H-indazole-6-carboxamide] |

Source: patent publication US20100105663A1, “2-(HETEROARYL) ALKYL INDAZOLE 6-PHENYL AND THIENYL METHYL AMIDE AS THROMBIN INHIBITORS” (BAYER HEALTHCARE AG, priority 2006, published 2010)
